Biological target: BRD4-BD1 (44-164) (Homo sapiens (Human), UniProt O60885)
Experiment: Alphascreen binding assay BRD4-BD1
Details: BRD4(1) H4; read-out: Biochemical activity (IC50 μM) BRD4(1) H4
Procedure: Binding of compounds of formula (I) with bromodomain 2, 3 4 was assessed using Alphascreen binding assay. The inhibition of the interaction between bromodomain and its acetylated target protein (Filippakopoulos P et al. 2012) was measured quantitatively using recombinant BRD proteins, an acetylated Histone 4 peptide and AlphaScreen™ technology. In absence of inhibition the BRD protein bound to AlphaScreen™ nickel chelate acceptor beads can interact with the acetylated Histone 4 peptide which is immobilized by the AlphaScreen™ Streptavidin coated beads. This interaction brings donor and acceptor beads in proximity. The close proximity allows the singlet oxygen produced by laser excitation of the donor beads to reach the acceptor beads and generate a luminescence signal.
Recombinant human bromodomains containing the N-terminal bromodomain (BRD2-BD1 (71-194), BRD3-BD1 (24-144) and BRD4-BD1 (44-164)) or dual bromodomains (BRD4-BD12 (1-477), BRD4-BD12 (1-472)) were prepared and purified as described in protein expression and purification session. The peptide is human Histone H41-21K5AcK8AcK12AcK16Ac-Biotin (Anaspec CA, USA).
Protocol for BRD2, BRD3 and BRD4 assay: All components are prepared in buffer composed of 50 mM HEPES pH 7.5, 100 mM NaCl, 0.01% bovine serum albumin (“BSA”), 0.01% Triton X-100, 2 mM dithiothreitol (“DTT”). 7 μL of Bromodomain protein and 7 μL of peptide are added to wells containing 1 μL of various concentrations of test compounds of formula (I) or DMSO vehicle in an Alphaplate (PerkinElmer GA, USA) and incubated for 1 hour at room temperature. 4 μL donor and acceptor bead mixture is then added with final concentrations of 7.5 μg/ml. 30 minutes after bead addition, Alpha signal is read on the Envision spectrometer (λEx 680 nm, λEm 520-620 nm). Final concentrations of bromodomain proteins and peptide are as shown below.
All data was normalized to the mean of 16 high and 16 low control wells on each plate. A four parameter curve fit of the following formula was then applied: Y=a+(b−a)/(1+(x/c)^d) Where ‘a’ is the minimum, ‘b’ is the maximum, ‘c’ is the pIC50 and ‘d’ is the Hill slope. Protein Expression and Purification
Recombinant human bromodomains containing the N-terminal bromodomain (BRD2-BD1 (71-194), BRD3-BD1 (24-144) and BRD4-BD1 (44-164)) or dual bromodomains (BRD4-BD12 (1-477), BRD4-BD12 (1-472)) were expressed in E. coli cells (in a modified pET vector) with an N-terminal six-His tag and purified using a combination of both IMAC (Ni-affinity) and size exclusion chromatography steps.
Recombinant BRD proteins were expressed using the E. coli strain BL21-CodonPlus (DE3) (Agilent Technologies CA, USA). Cells were grown in Terrific Broth (TB) media to an OD600 of 1.2 at 37° C. at which temperature was reduced to 25° C., protein was induced with 1.0 mM ispropyl-β-D-thiogalactopyranoside (“IPTG”) for 12-18 hours and harvested by centrifugation at 8000×g for 20 minutes. Cells were re-suspended in 0.1M K2PO4 pH 8.0, 250 mM NaCl, 10% Glycerol, 0.75% NP-40, 25 mM Imidazole, 5 mM beta-mercaptoethanol (“BME”) with 0.2 mg/ml Lysosyme, 2.0 mM phenylmethanesulfonyl fluoride (“PMSF”), 25 μg/ml DNAse I, incubated on ice for 30 minutes and lyzed with a cell disruptor (MicroFluidics MA, USA). The lysate was clarified by centrifugation at 20,000×g for 2 hours. The protein was captured with Ni-NTA resin (Life Technologies, USA). Contaminating proteins were washed off with 25 mM Tris-HCl pH 8.3, 250 mM NaCl, 12% Glycerol and 50 mM Imidazole. Following 3× wash steps, protein was eluted step wise using a 50 mM HEPES pH 7.5, 500 mM NaCl and 400 mM Imidazole. The protein was further purified using Gel Filtration column 26/600 Superdex 200 (GE Biosciences NJ, USA) in 50 mM HEPES pH 7.5, 250 mM NaCl. The protein was aliquoted and flash-frozen in liquid Nitrogen.

SMILES | IC50 [µM]
Cc1noc(C)c1-c1cnc2[nH]cc(CC3CCS(=O)(=O)CC3)c2c1 [P-0098, 4-[[5-(3,5-dimethylisoxazol-4-yl)-1H-pyrrolo[2,3-b]pyridin-3-yl]methyl]thiane 1,1-dioxide] | < 1
Cc1noc(C)c1-c1cnc2c(-c3cnn(C)c3)cn(C(CC#N)C3CCCC3)c2c1 (stereo not drawn) [P-0197, 3-cyclopentyl-3-[6-(3,5-dimethylisoxazol-4-yl)-3-(1-methylpyrazol-4-yl)pyrrolo[3,2-b]pyridin-1-yl]propanenitrile] | < 1
COC(c1cn(S(=O)(=O)C2CCCCC2)c2cc(-c3c(C)noc3C)cnc12)C1CC1 (stereo not drawn) [P-0071, 4-[1-cyclohexyl-sulfonyl-3-[cyclopropyl(methoxy)methyl]pyrrolo[3,2-b]pyridin-6-yl]-3,5-dimethyl-isoxazole] | < 1
Cc1noc(C)c1-c1cnc2c(-c3cc(C(F)(F)F)n[nH]3)cn(C(C)c3ccccc3)c2c1 (stereo not drawn) [P-0215, 3,5-dimethyl-4-[1-(1-phenylethyl)-3-[3-(trifluoromethyl)-1H-pyrazol-5-yl]pyrrolo[3,2-b]pyridin-6-yl]isoxazole] | < 1
Cc1noc(C)c1-c1cnc2[nH]cc([S+]([O-])c3cccc(F)c3)c2c1 (stereo not drawn) [P-0142, 4-[3-(3-fluorophenyl)sulfinyl-1H-pyrrolo[2,3-b]pyridin-5-yl]-3,5-dimethyl-isoxazole] | < 1
CCc1[nH]c2ncc(-c3c(C)noc3C)cc2c1Cc1ccccc1Cl [P-0049, 4-[3-[(2-chlorophenyl)methyl]-2-ethyl-1H-pyrrolo[2,3-b]pyridin-5-yl]-3,5-dimethyl-isoxazole] | < 1
Cc1noc(C)c1-c1cnc2[nH]cc(C(O)c3ccc(OCC(F)(F)F)nc3)c2c1 (stereo not drawn) [P-0012, [5-(3,5-dimethylisoxazol-4-yl)-1H-pyrrolo[2,3-b]pyridin-3-yl]-[6-(2,2,2-trifluoroethoxy)-3-pyridyl]methanol] | < 1
Cc1noc(C)c1-c1cnc2[nH]cc(C(c3ccc(F)cc3)C3CC3)c2c1 (stereo not drawn) [P-0064, 4-[3-[cyclopropyl-(4-fluorophenyl)methyl]-1H-pyrrolo[2,3-b]pyridin-5-yl]-3,5-dimethyl-isoxazole] | < 1
Cc1noc(C)c1-c1cnc2c(-c3cnn(C)c3)cn(S(=O)(=O)c3ccccc3)c2c1 [P-0110, 4-[1-(benzenesulfonyl)-3-(1-methylpyrazol-4-yl)pyrrolo[3,2-b]pyridin-6-yl]-3,5-dimethyl-isoxazole] | < 1
C=CCn1cc(-c2cn(S(=O)(=O)c3ccccc3F)c3cc(-c4c(C)noc4C)cnc23)cn1 [P-0127, 4-[3-(1-allylpyrazol-4-yl)-1-(2-fluorophenyl)sulfonyl-pyrrolo[3,2-b]pyridin-6-yl]-3,5-dimethyl-isoxazole] | < 1
Cc1noc(C)c1-c1cnc2[nH]cc(C(c3ccc(F)cc3)(C3CC3)C3CC3)c2c1 [P-0085, 4-[3-[dicyclopropyl-(4-fluorophenyl)methyl]-1H-pyrrolo[2,3-b]pyridin-5-yl]-3,5-dimethyl-isoxazole] | < 1
CCNC(=O)N1CCC(Cc2cn(C)c3ncc(-c4c(C)noc4C)cc23)CC1 [P-0117, 4-[[5-(3,5-dimethylisoxazol-4-yl)-1-methyl-pyrrolo[2,3-b]pyridin-3-yl]methyl]-N-ethyl-piperidine-1-carboxamide] | < 1
CC(=O)N1CCC(Cc2cn(C)c3ncc(-c4c(C)noc4C)cc23)CC1 [P-0120, 1-[4-[[5-(3,5-dimethylisoxazol-4-yl)-1-methyl-pyrrolo[2,3-b]pyridin-3-yl]methyl]-1-piperidyl]ethanone] | < 1
CCCS(=O)(=O)n1cc(-c2cnn(C(F)F)c2)c2ncc(-c3c(C)noc3C)cc21 [P-0135, 4-[3-[1-(difluoro-methyl)pyrazol-4-yl]-1-propylsulfonyl-pyrrolo[3,2-b]pyridin-6-yl]-3,5-dimethyl-isoxazole] | < 1
Cc1noc(C)c1-c1cnc2c(-c3cnn(C)c3)cn(C(C(=O)O)c3ccccc3)c2c1 (stereo not drawn) [P-0206, 2-[6-(3,5-dimethylisoxazol-4-yl)-3-(1-methylpyrazol-4-yl)pyrrolo[3,2-b]pyridin-1-yl]-2-phenyl-acetic acid] | < 1
Cc1ccc(S(=O)(=O)n2ccc3ncc(-c4c(C)noc4C)cc32)s1 [P-0062, 3,5-dimethyl-4-[1-[(5-methyl-2-thienyl)sulfonyl]pyrrolo[3,2-b]pyridin-6-yl]isoxazole] | < 1
Cc1noc(C)c1-c1cnc2c(C#CCO)cn(S(=O)(=O)C3CCCC3)c2c1 [P-0156, 3-[1-cyclopentylsulfonyl-6-(3,5-dimethylisoxazol-4-yl)pyrrolo[3,2-b]pyridin-3-yl]prop-2-yn-1-ol] | < 1
Cc1noc(C)c1-c1cnc2[nH]cc(P(=O)(c3ccccc3)c3ccccc3)c2c1 [P-0166, 4-(3-diphenylphosphoryl-1H-pyrrolo[2,3-b]pyridin-5-yl)-3,5-dimethyl-isoxazole] | < 1
COc1ncc(C(O)c2c[nH]c3ncc(-c4c(C)noc4C)cc23)cc1F (stereo not drawn) [P-0025, [5-(3,5-dimethylisoxazol-4-yl)-1H-pyrrolo[2,3-b]pyridin-3-yl]-(5-fluoro-6-methoxy-3-pyridyl)methanol] | < 1
Cc1noc(C)c1-c1cnc2c(-c3cn[nH]c3)cn(S(=O)(=O)C3CCCC3)c2c1 [P-0167, 4-[1-cyclopentylsulfonyl-3-(1H-pyrazol-4-yl)pyrrolo[3,2-b]pyridin-6-yl]-3,5-dimethyl-isoxazole] | < 1
Cc1noc(C)c1-c1cnc2c(-c3cnn(C4CCOC4)c3)cn(S(=O)(=O)C3CCCC3)c2c1 (stereo not drawn) [P-0153, 4-[1-cyclopentyl-sulfonyl-3-(1-tetrahydrofuran-3-ylpyrazol-4-yl)pyrrolo[3,2-b]pyridin-6-yl]-3,5-dimethyl-isoxazole] | < 1
Cc1noc(C)c1-c1cnc2[nH]cc(Sc3ccccc3)c2c1 [P-0144, 3,5-dimethyl-4-(3-phenylsulfanyl-1H-pyrrolo[2,3-b]pyridin-5-yl)isoxazole] | < 1
C=CCn1cc(-c2cn(C(C)c3ccccc3)c3cc(-c4c(C)noc4C)cnc23)cn1 (stereo not drawn) [P-0201, 4-[3-(1-allylpyrazol-4-yl)-1-(1-phenylethyl)pyrrolo[3,2-b]pyridin-6-yl]-3,5-dimethyl-isoxazole] | < 1
Cc1noc(C)c1-c1cnc2[nH]cc(S(=O)(=O)c3ccccc3)c2c1 [P-0145, 4-[3-(benzenesulfonyl)-1H-pyrrolo[2,3-b]pyridin-5-yl]-3,5-dimethyl-isoxazole] | < 1
Cc1noc(C)c1-c1cnc2c(-c3cnn(C)c3)cn(Cc3ccccc3F)c2c1 [P-0172, 4-[1-[(2-fluorophenyl)methyl]-3-(1-methylpyrazol-4-yl)pyrrolo[3,2-b]pyridin-6-yl]-3,5-dimethyl-isoxazole] | < 1
Cc1noc(C)c1-c1cnc2[nH]cc(C(O)c3ccccc3OC(F)F)c2c1 (stereo not drawn) [P-0040, [2-(difluoromethoxy)phenyl]-[5-(3,5-dimethylisoxazol-4-yl)-1H-pyrrolo[2,3-b]pyridin-3-yl]methanol] | < 1
Cc1noc(C)c1-c1cnc2c(-c3cnn(C)c3)cn(Cc3cc(F)ccc3Cl)c2c1 [P-0190, 4-[1-[(2-chloro-5-fluoro-phenyl)methyl]-3-(1-methylpyrazol-4-yl)pyrrolo[3,2-b]pyridin-6-yl]-3,5-dimethyl-isoxazole] | < 1

— patent US10519177B2, “Heterocyclic compounds and uses thereof” (Plexxikon Inc., priority 2013, dated 2019)
